Experimental data from publication PMC8228600, “Design, Synthesis, In Vitro and In Vivo Evaluation of Heterobivalent SiFAlin-Modified Peptidic Radioligands Targeting Both Integrin αvβ3 and the MC1 Receptor—Suitable for the Specific Visualization of Melanomas?” (Pharmaceuticals, 2021).
Like-named read-outs stand apart in the source and are kept apart here.

How the values were obtained:
[1] = Ex vivo biodistribution: uptake in U87MG tumors and tumor-to-organ ratios; design: species or system nude mice (Balb/cAnNRj-Foxn1nu/nu); conditions: male, Balb/cAnNRj-Foxn1nu/nu (nude), mouse, iv, total radioactivity; for tissue uptake: U87MG tumor (integrin αvβ3-positive); for tissue to tissue ratio: ex vivo biodistribution, mean (n = 3) ± SD
Method: (§1) For the evaluation of the in vivo pharmacokinetics, the two most promising HBPLs—[^18F]2 with the highest affinity to both target receptors and [^18F]4 with the highest hydrophilicity and still reasonable binding affinities—were selected. For PET/CT imaging, 6-week-old male nude mice (Balb/cAnNRj-Foxn1^nu/nu) were subcutaneously injected with 5 × 10^5 B16F10 cells into the right flank and 2.0–2.5 × 10^6 U87MG cells into the left flank to generate the respective receptor-positive tumors. When the tumors reached a sufficient size for imaging, each mouse was administered 4.15 ± 2.28 MBq of [^18F]2 or 3.95 ± 2.06 MBq of [^18F]4 via the lateral tail vein under isoflurane anesthesia. To determine the receptor specificity of both peptide parts of the labeled HBPLs and their relative contribution to overall tumor uptake, blocking experiments were also performed. […] After i.v. injection of the tracers, a dynamic PET scan, followed by a CT scan, was performed. The resulting PET/CT images and time–activity curves (TACs) are depicted in Figure 6, Figure 7 and Figure 8. After completion of the diagnostic scans, the mice were sacrificed, their organs (blood, spleen, liver, kidney, pancreas, lung, heart, brain, bone, muscle, tail, tumors, stomach, colon and small intestine) were collected and measured in a γ-counter for ex vivo biodistribution (see Supplementary Materials Table S1 for detailed results).
(§2) Each male nude mouse (six weeks old) was injected subcutaneously with 5 × 10^5 B16F10 cells into the right flank and 2.0–2.5 × 10^6 U87MG cells into the left flank. The health status and tumor growth of the mice were monitored regularly until the animals could be examined after 15–21 days, depending on the tumor size. For the in vivo experiments, the ^18F-radiolabeled compound was diluted in 0.9% saline to give a final EtOH concentration of <10%. Each mouse was injected with 4.15 ± 2.28 MBq of [^18F]2 or 3.95 ± 2.06 MBq of [^18F]4 via the lateral tail vein under isoflurane anesthesia. […] Each ^18F-labeled compound was studied with or without blocking in at least three mice. Mice were measured under isoflurane anesthesia in a small PET/SPECT/CT animal imaging system. First, a dynamic PET scan was performed over 90 min and the scan was framed in 29 timeframes (10 × 1 min, 10 × 2 min, 6 × 5 min, 3 × 10 min). Images were reconstructed using 12 iterations, a maximum likelihood expectation maximization (MLEM) algorithm including corrections for scattered radiation and decay and a voxel size of 0.5 mm. All PET scans were immediately followed by CT acquisition at a voltage of 45 kV and a current of 400 μA. The images were reconstructed using the filtered back projection (FBP) algorithm with a voxel size of 250 μm. The analysis of the data, including the generation of TACs of the kidneys, liver and tumors and the MIPs, was performed via PMOD (v3.8). For ex vivo biodistribution, the mice were sacrificed directly after the PET/CT scan. Organs (blood, spleen, liver, kidneys, pancreas, lungs, heart, brain, bone, muscle, tail, tumors, stomach, colon and small intestine) were collected, weighed and their radioactivity measured in a γ-counter. The percentage injected dose per gram (% ID/g) of each tissue was calculated from the determined values, organ weights, reference values and injected activity.

[2] = test system: integrin αvβ3-positive U87MG tumors; experiment: as above; design: species or system nude mice (Balb/cAnNRj-Foxn1nu/nu); conditions: c(RGDyK) blocking (200 μg coinjected); ex vivo after PET/CT scan; i.v.; n = 3
Method: as §1, §2

[3] = Ex vivo biodistribution in tumor-bearing nude mice (non-tumor tissues); conditions: male, Balb/cAnNRj-Foxn1nu/nu (nude), mouse, iv, total radioactivity, ex vivo after PET/CT scan, i.v., n = 3
Method: as §1, §2

SMILES: CCCC[C@H](NC(=O)CNC(=O)CNC(=O)CCOCCOCCOCCOCCC(=O)NCCCN(CCCNC(=O)CCOCCOCCOCCOCCC(=O)NCCCC[C@@H]1NC(=O)[C@@H](Cc2ccccc2)NC(=O)[C@H](CC(=O)O)NC(=O)CNC(=O)[C@H](CCCNC(=N)N)NC1=O)CC(=O)N[C@@H](CCCCNC(=O)CCC[N+](C)(C)Cc1ccc([Si](F)(C(C)(C)C)C(C)(C)C)cc1)C(N)=O)C(=O)N[C@H]1CC(=O)NCCCC[C@@H](C(N)=O)NC(=O)[C@H](Cc2c[nH]c3ccccc23)NC(=O)[C@H](CCCNC(=N)N)NC(=O)[C@@H](Cc2ccccc2)NC(=O)[C@H](Cc2c[nH]cn2)NC1=O [[^18F]2]
- tissue uptake ([1]; NDP blocking (20 μg coinjected), ex vivo after PET/CT scan, i.v., n = 3): 3.19 ± 0.33 %ID/g
- tissue uptake ([1]; c(RGDyK) blocking (200 μg coinjected), ex vivo after PET/CT scan, i.v., n = 3): 1.48 ± 0.12 %ID/g
- tissue uptake ([1]; double blocking (NDP + c(RGDyK)), ex vivo after PET/CT scan, i.v., n = 3): 1 ± 0.11 %ID/g
- tissue uptake ([1]; without blocking, ex vivo after PET/CT scan, i.v., n = 3): 2.33 ± 0.46 %ID/g
- tissue to tissue ratio ([1]; U87MG tumor / blood, without blocking, read-out: tumor/blood ratio, U87MG): 2.4 ± 0.67
- tissue to tissue ratio ([1]; U87MG tumor / kidneys, without blocking, read-out: tumor/kidneys ratio, U87MG): 0.18 ± 0.02
- tissue to tissue ratio ([1]; U87MG tumor / liver, without blocking, read-out: tumor/liver ratio, U87MG): 0.14 ± 0.03
- tissue to tissue ratio ([1]; U87MG tumor / muscle, without blocking, read-out: tumor/muscle ratio, U87MG): 0.79 ± 0.66
- tissue uptake at 1.5 h ([1]; U87MG tumor, without blocking, ex vivo after PET/CT scan, i.v., n = 3): 2.33 ± 0.46 %ID/g
- ID/g, U87MG tumor [2]: 1.48 ± 0.12 % ID/g
- tissue uptake at 1.5 h ([3]; blood, NDP blocking (20 μg coinjected), read-out: ID/g, blood): 0.84 ± 0.12 %ID/g
- tissue uptake at 1.5 h ([3]; blood, c(RGDyK) blocking (200 μg coinjected), read-out: ID/g, blood): 1.14 ± 0.15 %ID/g
- tissue uptake at 1.5 h ([3]; blood, double blocking (NDP + c(RGDyK)), read-out: ID/g, blood): 1.13 ± 0.1 %ID/g
- tissue uptake at 1.5 h ([3]; blood, without blocking, read-out: ID/g, blood): 0.99 ± 0.23 %ID/g
- tissue uptake at 1.5 h ([3]; bone, NDP blocking (20 μg coinjected), read-out: ID/g, bone): 9.74 ± 2.85 %ID/g
- tissue uptake at 1.5 h ([3]; bone, c(RGDyK) blocking (200 μg coinjected), read-out: ID/g, bone): 4.12 ± 0.73 %ID/g
- tissue uptake at 1.5 h ([3]; bone, double blocking (NDP + c(RGDyK)), read-out: ID/g, bone): 4.47 ± 1.57 %ID/g
- tissue uptake at 1.5 h ([3]; bone, without blocking, read-out: ID/g, bone): 8.01 ± 3.48 %ID/g
- tissue uptake at 1.5 h ([3]; brain, NDP blocking (20 μg coinjected), read-out: ID/g, brain): 0.13 ± 0.03 %ID/g
- tissue uptake at 1.5 h ([3]; brain, c(RGDyK) blocking (200 μg coinjected), read-out: ID/g, brain): 0.13 ± 0.05 %ID/g
- tissue uptake at 1.5 h ([3]; brain, double blocking (NDP + c(RGDyK)), read-out: ID/g, brain): 0.07 ± 0.01 %ID/g
- tissue uptake at 1.5 h ([3]; brain, without blocking, read-out: ID/g, brain): 0.18 ± 0.02 %ID/g
- tissue uptake ([3]; colon, NDP blocking (20 μg coinjected), read-out: ID/g, colon): 1.44 ± 0.34 %ID/g
- tissue uptake ([3]; colon, c(RGDyK) blocking (200 μg coinjected), read-out: ID/g, colon): 0.5 ± 0.07 %ID/g
- tissue uptake ([3]; colon, double blocking (NDP + c(RGDyK)), read-out: ID/g, colon): 0.63 ± 0.2 %ID/g
- tissue uptake ([3]; colon, without blocking, read-out: ID/g, colon): 1.58 ± 0.44 %ID/g
- tissue uptake at 1.5 h ([3]; heart, NDP blocking (20 μg coinjected), read-out: ID/g, heart): 1.06 ± 0.31 %ID/g
- tissue uptake at 1.5 h ([3]; heart, c(RGDyK) blocking (200 μg coinjected), read-out: ID/g, heart): 0.62 ± 0.09 %ID/g
- tissue uptake at 1.5 h ([3]; heart, double blocking (NDP + c(RGDyK)), read-out: ID/g, heart): 0.93 ± 0.18 %ID/g
- tissue uptake at 1.5 h ([3]; heart, without blocking, read-out: ID/g, heart): 1.24 ± 0.36 %ID/g
- tissue uptake at 1.5 h ([3]; kidneys, NDP blocking (20 μg coinjected), read-out: ID/g, kidneys): 17.3 ± 2.08 %ID/g
- tissue uptake at 1.5 h ([3]; kidneys, c(RGDyK) blocking (200 μg coinjected), read-out: ID/g, kidneys): 12.1 ± 2.3 %ID/g
- tissue uptake at 1.5 h ([3]; kidneys, double blocking (NDP + c(RGDyK)), read-out: ID/g, kidneys): 24 ± 6.34 %ID/g
- tissue uptake at 1.5 h ([3]; kidneys, without blocking, read-out: ID/g, kidneys): 13.2 ± 3.57 %ID/g
- tissue uptake at 1.5 h ([3]; liver, NDP blocking (20 μg coinjected), read-out: ID/g, liver): 14.9 ± 5.07 %ID/g
- tissue uptake at 1.5 h ([3]; liver, c(RGDyK) blocking (200 μg coinjected), read-out: ID/g, liver): 4.94 ± 1.39 %ID/g
- tissue uptake at 1.5 h ([3]; liver, double blocking (NDP + c(RGDyK)), read-out: ID/g, liver): 8.5 ± 2.71 %ID/g
- tissue uptake ([3]; liver, without blocking, read-out: ID/g, liver): 17.2 ± 6.58 %ID/g
- tissue uptake at 1.5 h ([3]; lung, NDP blocking (20 μg coinjected), read-out: ID/g, lung): 2.98 ± 0.87 %ID/g
- tissue uptake at 1.5 h ([3]; lung, c(RGDyK) blocking (200 μg coinjected), read-out: ID/g, lung): 1.07 ± 0.15 %ID/g
- tissue uptake at 1.5 h ([3]; lung, double blocking (NDP + c(RGDyK)), read-out: ID/g, lung): 1.3 ± 0.36 %ID/g
- tissue uptake at 1.5 h ([3]; lung, without blocking, read-out: ID/g, lung): 2.89 ± 1.04 %ID/g
- tissue uptake at 1.5 h ([3]; muscle, NDP blocking (20 μg coinjected), read-out: ID/g, muscle): 1.37 ± 0.26 %ID/g
- tissue uptake at 1.5 h ([3]; muscle, c(RGDyK) blocking (200 μg coinjected), read-out: ID/g, muscle): 0.38 ± 0.04 %ID/g
- tissue uptake at 1.5 h ([3]; muscle, double blocking (NDP + c(RGDyK)), read-out: ID/g, muscle): 0.34 ± 0.07 %ID/g
- tissue uptake at 1.5 h ([3]; muscle, without blocking, read-out: ID/g, muscle): 4.37 ± 2.58 %ID/g
- tissue uptake at 1.5 h ([3]; pancreas, NDP blocking (20 μg coinjected), read-out: ID/g, pancreas): 0.8 ± 0.15 %ID/g
- tissue uptake at 1.5 h ([3]; pancreas, c(RGDyK) blocking (200 μg coinjected), read-out: ID/g, pancreas): 0.36 ± 0.04 %ID/g
- tissue uptake at 1.5 h ([3]; pancreas, double blocking (NDP + c(RGDyK)), read-out: ID/g, pancreas): 0.55 ± 0.15 %ID/g
- tissue uptake at 1.5 h ([3]; pancreas, without blocking, read-out: ID/g, pancreas): 0.91 ± 0.29 %ID/g
- tissue uptake ([3]; small intestine, NDP blocking (20 μg coinjected), read-out: ID/g, small intestine): 2.75 ± 0.36 %ID/g
- tissue uptake ([3]; small intestine, c(RGDyK) blocking (200 μg coinjected), read-out: ID/g, small intestine): 0.75 ± 0.11 %ID/g
- tissue uptake ([3]; small intestine, double blocking (NDP + c(RGDyK)), read-out: ID/g, small intestine): 0.9 ± 0.23 %ID/g
- tissue uptake ([3]; small intestine, without blocking, read-out: ID/g, small intestine): 2.46 ± 1.77 %ID/g
- tissue uptake ([3]; spleen, NDP blocking (20 μg coinjected), read-out: ID/g, spleen): 2.75 ± 0.55 %ID/g
- tissue uptake ([3]; spleen, c(RGDyK) blocking (200 μg coinjected), read-out: ID/g, spleen): 0.94 ± 0.19 %ID/g
- tissue uptake ([3]; spleen, double blocking (NDP + c(RGDyK)), read-out: ID/g, spleen): 1.07 ± 0.32 %ID/g
- tissue uptake ([3]; spleen, without blocking, read-out: ID/g, spleen): 2.73 ± 0.85 %ID/g
- tissue uptake ([3]; stomach, NDP blocking (20 μg coinjected), read-out: ID/g, stomach): 1.52 ± 0.31 %ID/g
- tissue uptake ([3]; stomach, c(RGDyK) blocking (200 μg coinjected), read-out: ID/g, stomach): 0.54 ± 0.04 %ID/g
- tissue uptake ([3]; stomach, double blocking (NDP + c(RGDyK)), read-out: ID/g, stomach): 0.54 ± 0.12 %ID/g
- tissue uptake ([3]; stomach, without blocking, read-out: ID/g, stomach): 1.56 ± 0.29 %ID/g
- tissue uptake at 1.5 h ([3]; tail, NDP blocking (20 μg coinjected), read-out: ID/g, tail): 37.6 ± 8.67 %ID/g
- tissue uptake at 1.5 h ([3]; tail, c(RGDyK) blocking (200 μg coinjected), read-out: ID/g, tail): 69 ± 3.84 %ID/g
- tissue uptake ([3]; tail, double blocking (NDP + c(RGDyK)), read-out: ID/g, tail): 53.3 ± 12.8 %ID/g
- tissue uptake at 1.5 h ([3]; tail, without blocking, read-out: ID/g, tail): 38 ± 14.4 %ID/g
